This note sets out measurements from ChEMBL document CHEMBL4414548 (J Med Chem, 2019).

Calls of active or inactive are those of the source. The calls are words filed in the database; no cut-off is given here.

Series [1] concerns the target Tyrosine-protein kinase JAK1 (Homo sapiens, UniProt P23458). Briefly: Inhibition of JAK1 JH1 domain (unknown origin).
Series [2] concerns the target T1, Non-receptor tyrosine-protein kinase TYK2 (Homo sapiens, UniProt P29597). The series can be described thus: Inhibition of TYK2 JH2 (unknown origin) by Scintillation proximity assay.
In series [3] the target is T1, Non-receptor tyrosine-protein kinase TYK2. Briefly: Inhibition of fluorescein-labeled kinase tracer binding to His-TVMV-fused TYK2 JH2 domain (575 to 869 residues) (unknown origin) measured after 90 mins by HTRF assay.
The target in another series is JAK3/JAK1 (Homo sapiens, UniProt P23458+P52333). Briefly: Inhibition of JAK1/JAK3 (unknown origin) in IL-2 stimulated cells by cell based assay.
A short description of series [4]: Metabolic stability in pooled human liver microsomes at 0.5 uM after 10 mins by UV based analysis. Format: ADME, Microsome. Conditions: read-out: Stability. (Liver microsomes are a subcellular fraction often used to study metabolism.)
Series [5] can be described thus: Metabolic stability in pooled mouse liver microsomes at 0.5 uM after 10 mins by UV based analysis. Format: ADME, Microsome. The settings on record: read-out: Stability.
Series [6] has as its target T2, Inhibitor of nuclear factor kappa-B kinase subunit beta (Homo sapiens) (UniProt O14920).
T2 sequence (whole entry): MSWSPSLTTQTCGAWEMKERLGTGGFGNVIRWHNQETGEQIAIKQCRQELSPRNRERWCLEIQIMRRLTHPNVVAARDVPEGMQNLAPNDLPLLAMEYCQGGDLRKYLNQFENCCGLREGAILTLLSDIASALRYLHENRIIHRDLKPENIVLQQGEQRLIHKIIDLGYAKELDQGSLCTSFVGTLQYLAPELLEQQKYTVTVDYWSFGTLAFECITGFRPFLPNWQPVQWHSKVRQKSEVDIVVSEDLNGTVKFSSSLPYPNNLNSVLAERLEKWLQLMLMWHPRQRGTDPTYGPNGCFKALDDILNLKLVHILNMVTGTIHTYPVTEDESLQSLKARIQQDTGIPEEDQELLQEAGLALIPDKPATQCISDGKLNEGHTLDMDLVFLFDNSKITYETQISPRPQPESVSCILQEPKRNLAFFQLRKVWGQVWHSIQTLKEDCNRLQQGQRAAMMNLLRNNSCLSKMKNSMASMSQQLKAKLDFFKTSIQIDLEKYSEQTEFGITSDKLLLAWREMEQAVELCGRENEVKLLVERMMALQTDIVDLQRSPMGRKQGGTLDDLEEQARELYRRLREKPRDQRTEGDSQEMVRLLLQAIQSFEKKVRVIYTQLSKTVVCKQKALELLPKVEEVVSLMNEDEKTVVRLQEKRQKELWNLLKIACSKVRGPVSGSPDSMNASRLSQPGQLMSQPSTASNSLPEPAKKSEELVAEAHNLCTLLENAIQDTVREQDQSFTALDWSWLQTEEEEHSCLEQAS
Briefly: Inhibition of IKKbeta (unknown origin).

A further series has as its target JAK2/TYK2 (Homo sapiens, UniProt O60674+P29597). Briefly: Inhibition of TYK2/JAK2 in IL23-stimulated human Kit225 cells by steady-glo luciferase assay.
For a further series, the target named is JAK2/JAK1 (Homo sapiens, UniProt O60674+P23458). The series can be described thus: Inhibition of JAK1/JAK2 (unknown origin) in GM-CSF stimulated cells by cell based assay.
Series [7] concerns the target Tyrosine-protein kinase JAK2 (Homo sapiens, UniProt O60674). The series can be described thus: Inhibition of JAK2 JH1 domain (unknown origin).
In series [8] the target is T1, Non-receptor tyrosine-protein kinase TYK2. Briefly: Inhibition of TYK2 JH1 domain (unknown origin).
Another series addresses JAK1/TYK2 (Homo sapiens, UniProt P23458+P29597). The series can be described thus: Inhibition of TYK2/JAK1 in IFNalpha-stimulated human Kit225 cells by steady-glo luciferase assay.
For series [9], the target named is T1, Non-receptor tyrosine-protein kinase TYK2. The series can be described thus: Inhibition of TYK2 JH2 (unknown origin) by morrison titration assay. Conditions: read-out: Ki(app).
A short description of series [10]: Half life in cynomolgus monkey liver microsomes. Format: ADME, Macaca fascicularis, Microsome.
In series [11] the target is Non-receptor tyrosine-protein kinase TYK2 (Mus musculus, UniProt Q9R117). The series can be described thus: Inhibition of TYK2 JH2 domain in mouse whole blood assessed as inhibition of IFNalpha-induced STAT1 phosphorylation preincubated for 1 hr followed by IFNalpha stimulation and measured after 15 mins by fluorescence assay. Format: tissue-based.
Series [12] is described as follows: Half life in mouse liver microsomes. Format: ADME, Microsome.
The nature of series [13]: Half life in dog liver microsomes. It is filed as ADME, Canis lupus familiaris, Microsome.
Series [14] has as its target Voltage-gated inwardly rectifying potassium channel KCNH2 (Homo sapiens, UniProt Q12809). The series can be described thus: Inhibition of human ERG by patch clamp assay. (In general: Patch clamp records ionic current or voltage across a cell membrane.)
A short description of series [15]: Efflux ratio of permeability in human Caco2. Format: ADME, cell-based. The settings on record: Caco-2.
The target in series [16] is T1, Non-receptor tyrosine-protein kinase TYK2. Briefly: Inhibition of TYK2 JH2 domain in human whole blood assessed as inhibition of IFNalpha-induced STAT5 phosphorylation preincubated for 1 hr followed by IFNalpha stimulation and measured after 15 mins by fluorescence assay. It is filed as tissue-based.
Series [17] is described as follows: AUClast in mouse at 10 mg/kg, po after 7 hrs. Conditions: in vivo. Further details: time < 7 hr, dose 10 mg/kg, route oral. Format: ADME, organism-based.
The nature of series [18]: Half life in human liver microsomes. It is filed as ADME, Microsome.
Series [19] can be described thus: Half life in rat liver microsomes. Format: ADME, Microsome.
The nature of series [20]: Permeability across apical to basolateral side in human Caco2 cells. It is filed as ADME, cell-based. Conditions: Caco-2, read-out: permeability. A general note: Passage across Caco-2 layers is used to estimate intestinal permeability.
Series [21] is described as follows: Partition coefficient, log P of compound by HPLC analysis. It is filed as physicochemical. The settings on record: octanol/water.
Series [22] is described as follows: Cmax in mouse at 10 mg/kg, po after 7 hrs. Conditions: in vivo. Format: ADME, organism-based. Further details: dose 10 mg/kg, route oral.
Series [23] can be described thus: AUClast in mouse at 10 mg/kg, po. Format: ADME, organism-based. Details: dose 10 mg/kg, route oral, time 0 - last. Conditions: in vivo.
Series [24] is described as follows: Cmax in mouse at 10 mg/kg, po. Format: ADME, organism-based. Further details: dose 10 mg/kg, route oral. Conditions: in vivo.
Series [25] is described as follows: Metabolic stability in rat liver microsomes assessed as parent compound remaining after 10 mins. It is filed as ADME, Microsome. The settings on record: read-out: Stability.
The nature of series [26]: Protein binding in human plasma assessed as unbound fraction. Format: ADME, cell-free.
Series [27] in a line: Metabolic stability in human liver microsomes assessed as parent compound remaining after 10 mins. The settings on record: read-out: Stability. It is filed as ADME, Microsome.
The target of series [28] is 3',5'-cyclic-AMP phosphodiesterase 4D (Homo sapiens, UniProt Q08499). Briefly: Inhibition of [3H]cAMP binding to recombinant human His-Tb fused PDE4D2 (86 to 413 residues) expressed in Escherichia coli using [3H]cAMP as substrate preincubated for 10 mins followed by [3H]cAMP addition and measured after 1 hr by scintillation proximity assay.
Series [29] can be described thus: Metabolic stability in mouse liver microsomes assessed as parent compound remaining after 10 mins. The settings on record: read-out: Stability. It is filed as ADME, Microsome.
The test system of series [30] is Mus musculus. Briefly: Antiinflammatory activity in B6 CB17 mouse model of CD40-induced colitis assessed as reduction in colitis damage at 250 mg/kg, po BID administered as nanosuspension. It is filed as functional, organism-based. The settings on record: tested as the 2H-labelled form.
The subject of series [31] is Mus musculus. The series can be described thus: Antiinflammatory activity in B6 CB17 mouse model of CD40-induced colitis assessed as reduction in inflammation at 250 mg/kg, po BID administered as nanosuspension. It is filed as functional, organism-based. Conditions: tested as the 2H-labelled form.
For series [32], the system named is Mus musculus. Briefly: Inhibition of IL12/IL18-induced IFNgamma production in po dosed C57BL/6 mouse pretreated for 1 hr followed by IL12 stimulation and subsequent IL18 addition and measured after 3 hrs. Format: functional, organism-based. Conditions: tested as the 2H-labelled form.
Series [33] concerns Mus musculus. Briefly: Antiinflammatory activity in B6 CB17 mouse model of CD40-induced colitis assessed as reduction in colitis severity at 250 mg/kg, po BID administered as nanosuspension. Format: functional, organism-based. The settings on record: tested as the 2H-labelled form.
Series [34] deals with Mus musculus. The series can be described thus: Antiinflammatory activity in po dosed B6 CB17 mouse model of CD40-induced colitis assessed as inhibition of body weight loss administered twice daily as nanosuspension. Format: functional, organism-based. Conditions: tested as the 2H-labelled form.

Sequence of JAK2/TYK2 (O60674 whole entry): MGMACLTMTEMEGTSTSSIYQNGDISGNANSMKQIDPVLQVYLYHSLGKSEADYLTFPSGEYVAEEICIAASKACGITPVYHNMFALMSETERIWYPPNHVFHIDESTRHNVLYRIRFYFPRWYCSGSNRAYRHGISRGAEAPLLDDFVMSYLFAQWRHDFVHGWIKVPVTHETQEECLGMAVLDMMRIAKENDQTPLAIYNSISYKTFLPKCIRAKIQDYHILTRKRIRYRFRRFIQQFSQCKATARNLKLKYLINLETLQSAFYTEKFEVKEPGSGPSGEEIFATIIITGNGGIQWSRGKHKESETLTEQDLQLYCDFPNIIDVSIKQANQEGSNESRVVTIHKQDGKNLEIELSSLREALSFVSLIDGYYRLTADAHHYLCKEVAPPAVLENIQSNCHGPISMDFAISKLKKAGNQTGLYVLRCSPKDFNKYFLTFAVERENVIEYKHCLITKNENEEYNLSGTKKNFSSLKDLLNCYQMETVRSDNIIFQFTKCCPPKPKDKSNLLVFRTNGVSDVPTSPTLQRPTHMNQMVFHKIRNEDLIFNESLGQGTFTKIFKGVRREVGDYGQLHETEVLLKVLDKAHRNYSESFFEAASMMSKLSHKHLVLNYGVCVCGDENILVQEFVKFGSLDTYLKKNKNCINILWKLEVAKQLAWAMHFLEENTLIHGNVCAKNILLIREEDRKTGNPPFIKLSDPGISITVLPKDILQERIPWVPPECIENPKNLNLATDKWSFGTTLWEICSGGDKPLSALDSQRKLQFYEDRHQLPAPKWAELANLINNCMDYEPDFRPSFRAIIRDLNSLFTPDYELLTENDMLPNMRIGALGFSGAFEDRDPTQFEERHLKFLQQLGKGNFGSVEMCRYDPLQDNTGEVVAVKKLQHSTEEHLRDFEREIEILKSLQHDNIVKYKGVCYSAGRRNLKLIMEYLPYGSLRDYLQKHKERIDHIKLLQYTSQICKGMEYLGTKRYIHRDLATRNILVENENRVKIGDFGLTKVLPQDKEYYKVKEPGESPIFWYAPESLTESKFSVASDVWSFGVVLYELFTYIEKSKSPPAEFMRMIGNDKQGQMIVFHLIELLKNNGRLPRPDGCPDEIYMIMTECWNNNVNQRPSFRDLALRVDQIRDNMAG
Sequence of JAK2/TYK2 (P29597 whole entry): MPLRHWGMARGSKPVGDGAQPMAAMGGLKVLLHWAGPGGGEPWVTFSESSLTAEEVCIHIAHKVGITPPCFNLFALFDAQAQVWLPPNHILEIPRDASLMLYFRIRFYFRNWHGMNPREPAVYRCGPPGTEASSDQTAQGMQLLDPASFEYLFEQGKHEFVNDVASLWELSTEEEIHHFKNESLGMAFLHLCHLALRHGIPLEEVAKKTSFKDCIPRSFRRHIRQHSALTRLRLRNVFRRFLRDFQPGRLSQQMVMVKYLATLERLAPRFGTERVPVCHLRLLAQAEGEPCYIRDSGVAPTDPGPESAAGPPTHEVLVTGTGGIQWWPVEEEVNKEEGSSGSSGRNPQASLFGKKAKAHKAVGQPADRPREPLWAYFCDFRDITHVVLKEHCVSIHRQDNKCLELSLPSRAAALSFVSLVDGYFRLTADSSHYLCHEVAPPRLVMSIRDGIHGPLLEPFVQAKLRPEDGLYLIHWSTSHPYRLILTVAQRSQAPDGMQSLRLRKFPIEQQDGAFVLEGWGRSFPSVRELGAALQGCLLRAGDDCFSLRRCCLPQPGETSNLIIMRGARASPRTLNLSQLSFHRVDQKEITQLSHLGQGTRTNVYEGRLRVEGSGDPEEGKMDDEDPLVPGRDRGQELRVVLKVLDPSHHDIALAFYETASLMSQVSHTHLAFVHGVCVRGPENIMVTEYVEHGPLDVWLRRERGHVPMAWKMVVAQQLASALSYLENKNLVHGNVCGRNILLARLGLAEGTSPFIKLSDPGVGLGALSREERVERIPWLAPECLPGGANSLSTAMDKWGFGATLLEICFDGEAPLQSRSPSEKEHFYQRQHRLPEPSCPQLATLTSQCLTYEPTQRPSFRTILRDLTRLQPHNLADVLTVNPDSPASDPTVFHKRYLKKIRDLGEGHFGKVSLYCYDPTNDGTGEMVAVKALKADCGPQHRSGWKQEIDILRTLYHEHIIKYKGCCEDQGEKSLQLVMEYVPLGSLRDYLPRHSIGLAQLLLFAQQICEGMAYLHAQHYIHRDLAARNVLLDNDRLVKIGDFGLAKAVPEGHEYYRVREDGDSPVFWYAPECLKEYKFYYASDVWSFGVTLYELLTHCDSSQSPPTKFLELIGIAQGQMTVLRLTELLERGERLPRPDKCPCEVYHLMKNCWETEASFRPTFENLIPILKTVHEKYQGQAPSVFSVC
Sequence of Tyrosine-protein kinase JAK2 (O60674 whole entry, the tested form may be a part): as the sequence (O60674 whole entry) above
T1 sequence (P29597 whole entry, the tested form may be a part): as the sequence (P29597 whole entry) above
Sequence of JAK1/TYK2 (P23458 whole entry): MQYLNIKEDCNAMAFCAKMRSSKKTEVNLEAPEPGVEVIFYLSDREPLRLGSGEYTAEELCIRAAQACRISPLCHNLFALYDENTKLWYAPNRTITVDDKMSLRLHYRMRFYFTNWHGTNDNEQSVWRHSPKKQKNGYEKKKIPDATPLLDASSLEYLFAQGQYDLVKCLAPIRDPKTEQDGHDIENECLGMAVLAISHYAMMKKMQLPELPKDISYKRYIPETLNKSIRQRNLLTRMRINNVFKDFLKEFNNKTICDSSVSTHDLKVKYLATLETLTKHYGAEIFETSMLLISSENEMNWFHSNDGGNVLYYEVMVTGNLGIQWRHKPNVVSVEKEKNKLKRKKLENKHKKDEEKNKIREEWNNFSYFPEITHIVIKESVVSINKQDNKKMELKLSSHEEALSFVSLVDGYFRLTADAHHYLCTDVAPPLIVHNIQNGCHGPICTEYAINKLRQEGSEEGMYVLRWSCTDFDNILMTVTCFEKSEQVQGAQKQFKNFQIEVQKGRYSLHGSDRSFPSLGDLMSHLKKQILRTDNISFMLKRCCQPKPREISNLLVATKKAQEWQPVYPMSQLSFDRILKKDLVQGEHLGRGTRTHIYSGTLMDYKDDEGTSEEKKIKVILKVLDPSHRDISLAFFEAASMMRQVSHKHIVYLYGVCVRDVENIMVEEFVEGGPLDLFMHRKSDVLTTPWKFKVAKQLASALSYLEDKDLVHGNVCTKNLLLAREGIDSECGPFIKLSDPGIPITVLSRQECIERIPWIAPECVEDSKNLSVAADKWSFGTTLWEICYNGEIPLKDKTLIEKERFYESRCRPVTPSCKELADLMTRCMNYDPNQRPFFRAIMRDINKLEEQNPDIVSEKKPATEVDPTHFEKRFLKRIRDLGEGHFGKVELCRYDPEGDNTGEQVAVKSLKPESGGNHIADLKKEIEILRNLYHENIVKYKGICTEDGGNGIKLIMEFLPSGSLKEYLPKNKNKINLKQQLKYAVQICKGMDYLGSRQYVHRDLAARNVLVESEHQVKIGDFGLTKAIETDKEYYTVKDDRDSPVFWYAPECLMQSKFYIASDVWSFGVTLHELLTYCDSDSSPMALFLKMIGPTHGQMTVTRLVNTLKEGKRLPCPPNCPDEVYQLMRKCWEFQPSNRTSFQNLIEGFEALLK
Sequence of JAK1/TYK2 (P29597 whole entry): as the sequence (P29597 whole entry) above
Sequence of Tyrosine-protein kinase JAK1 (P23458 whole entry, the tested form may be a part): as the sequence (P23458 whole entry) above
Sequence of JAK3/JAK1 (P52333 whole entry): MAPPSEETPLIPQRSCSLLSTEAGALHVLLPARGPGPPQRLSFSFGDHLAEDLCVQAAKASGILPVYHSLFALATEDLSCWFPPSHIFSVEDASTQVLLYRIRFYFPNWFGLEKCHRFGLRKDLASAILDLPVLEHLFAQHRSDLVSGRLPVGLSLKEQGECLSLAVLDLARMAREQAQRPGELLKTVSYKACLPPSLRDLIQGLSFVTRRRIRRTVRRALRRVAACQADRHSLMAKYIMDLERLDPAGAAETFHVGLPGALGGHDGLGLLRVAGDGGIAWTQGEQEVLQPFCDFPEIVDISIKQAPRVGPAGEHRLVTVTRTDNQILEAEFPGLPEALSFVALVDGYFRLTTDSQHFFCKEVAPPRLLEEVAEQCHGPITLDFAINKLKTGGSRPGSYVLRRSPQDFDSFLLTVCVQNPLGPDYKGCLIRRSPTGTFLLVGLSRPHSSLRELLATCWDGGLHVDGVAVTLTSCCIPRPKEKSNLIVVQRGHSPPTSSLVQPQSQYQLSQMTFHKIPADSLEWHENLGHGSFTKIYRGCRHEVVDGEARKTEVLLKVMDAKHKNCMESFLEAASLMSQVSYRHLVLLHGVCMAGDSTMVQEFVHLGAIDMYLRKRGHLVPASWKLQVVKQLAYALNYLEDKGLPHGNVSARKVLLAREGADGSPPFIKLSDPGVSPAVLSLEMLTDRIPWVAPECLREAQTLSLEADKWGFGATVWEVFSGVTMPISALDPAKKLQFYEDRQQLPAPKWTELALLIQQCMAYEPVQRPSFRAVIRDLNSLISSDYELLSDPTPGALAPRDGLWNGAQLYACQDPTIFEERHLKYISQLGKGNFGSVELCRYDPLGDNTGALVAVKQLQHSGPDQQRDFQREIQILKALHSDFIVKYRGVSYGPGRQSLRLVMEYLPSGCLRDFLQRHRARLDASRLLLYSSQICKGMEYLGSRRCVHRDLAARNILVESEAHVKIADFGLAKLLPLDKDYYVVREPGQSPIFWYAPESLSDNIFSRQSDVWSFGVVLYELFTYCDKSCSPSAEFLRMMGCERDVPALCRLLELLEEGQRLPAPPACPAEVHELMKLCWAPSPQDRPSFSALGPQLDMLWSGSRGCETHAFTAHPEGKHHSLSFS
Sequence of JAK3/JAK1 (P23458 whole entry): as the sequence (P23458 whole entry) above
Sequence of JAK2/JAK1 (P23458 whole entry, the tested form may be a part): as the sequence (P23458 whole entry) above
Sequence of JAK2/JAK1 (O60674 whole entry, the tested form may be a part): as the sequence (O60674 whole entry) above

In general, IC50 refers to the concentration at which inhibition is half-maximal. For orientation: EC50 means the concentration at which the effect is half-maximal. Take `NC(=O)c1ccccc1Nc1cc(Nc2ccc(F)cn2)ncc1C(N)=O`: the half-inhibitory concentration (IC50) in series [1] worked out at 26 nM; in series [3] it was 0.46 nM; at JAK3/JAK1, 400 nM; at JAK2/TYK2, 89 nM; at JAK2/JAK1 it was 210 nM; in series [7] it was 24 nM. The IC50 came to 15 nM in series [8] and 37 nM on JAK1/TYK2. The same compound showed an EC50 in series [2] of 6.6 nM. In addition, the remaining at 10 min, 0.5 µM in series [4] and in series [5] was more than 80% throughout. For the same compound, the inhibition result in [6] is “inactive”. Also, the Ki in series [9] came to 0.06 nM.

A word on the half-life: it is how long it takes for the measured level to halve. For orientation: efflux ratio means a quotient of directional permeabilities that is used to spot active efflux. By AUC(0-t) is commonly meant exposure summed from dosing to a finite time, without extrapolation to infinity. The logP is the decadic logarithm of the partition coefficient of the neutral form, usually between octanol and water. A word on the Cmax: it is the peak of the concentration-time curve. As to `[2H]C([2H])([2H])NC(=O)c1nnc(NC(=O)C2CC2)cc1Nc1ccccc1S(C)(=O)=O`, the half-life in [10] is 1.12 h; in series [12], 0.8 h; in [13], 1.25 h; in series [18], 1.83 h; in series [19] it was 1.35 h. Further, the IC50 was 340 nM in series [11]; more than 2000 nM in series [1]; 1.3 nM in series [3]; more than 30000 nM in [14]; 230 nM in series [16]; more than 50000 nM in [7]. Further, the values for the IC50 (in series [8]; against JAK1/TYK2) were 50000 nM and 1.3 nM, respectively. The efflux ratio in series [15] came to 7.7. The compound further showed an AUC(0-t) at 7 h in [17] of 6.61 µM·h. The Papp A→B in series [20] amounted to 6.9 ×10⁻⁶ cm/s. The compound further gave a logP in series [21] of 2.03. In series [22], this compound returned a Cmax of 3420 nM. In series [9], the Ki stood at 0.8 nM.

What is called fraction unbound is free concentration divided by total concentration. On to `CNC(=O)c1cnc(Nc2ccc(F)cn2)cc1Nc1ccccc1C(N)=O`, for which the IC50 in series [1] was more than 2000 nM; in [3], 1.3 nM; against JAK3/JAK1, more than 12500 nM; in series [16], 530 nM; against JAK2/TYK2, 660 nM; at JAK2/JAK1, more than 12500 nM. Also, the IC50 is more than 2000 nM in series [7], more than 2000 nM in series [8], 10400 nM in series [28] and 320 nM against JAK1/TYK2. In [23], this compound returned an AUC(0-t) of 0.15 µM·h. The Cmax in series [24] worked out at 36 nM. The remaining at 10 min in series [25] worked out at 83%; in series [27], 94%; in series [29] it was 82%. The efflux ratio in [15] is more than 35. Moreover, the unbound share (fraction unbound) in series [26] worked out at 0.263. Besides, the Papp A→B in [20] was less than 1.5 ×10⁻⁶ cm/s.

For `CNC(=O)c1cnc(Nc2ccc(F)cn2)cc1Nc1ccc(F)c(F)c1OC`, the AUC(0-t) in [23] amounted to 4 µM·h. For the same compound, in series [24], the Cmax amounted to 1600 nM. Also, the IC50 worked out at 1.5 nM in [3]; 2400 nM in series [16]; 380 nM on JAK2/TYK2; 7400 nM in [28]; 220 nM at JAK1/TYK2. Also, the remaining at 10 min in series [25] came to 73%; in [27] it was 57%; in series [29], 58%. The efflux ratio in series [15] turned out to be 0.5. Further, the Papp A→B in series [20] was found to be 4.1 ×10⁻⁶ cm/s.

For the compound `CNC(=O)c1nnc(Nc2ccccn2)cc1Nc1ccccc1S(C)(=O)=O`, the result with Mus musculus [30], with Mus musculus [31] and in the series with Mus musculus [33] was Active. Besides, the inhibition entry with Mus musculus [32] and in the series with Mus musculus [34] was “Dose-dependent effect” each time.
